ChEMBL document CHEMBL5500376, “Novel pyxinol amide derivatives bearing an aliphatic heterocycle as P-glycoprotein modulators for overcoming multidrug resistance” (Eur J Med Chem, 2024)
“And” between values parts separate entries of the source, which are not always exact repeats. Equal entries are not always repeated.

Tests used:
[1] = Reversal of multi-drug resistance in human KVB cells assessed as increase in PTX-induced cytotoxicity by measuring cell survival at 5 uM measured after 72 hrs incubation in presence of 100 nM paclitaxel by MTT assay relative to control; assay type: functional, KBV
[2] = Reversal fold, ratio of PTX IC50 to PTX IC50 in presence of test compound for reversal of multi-drug resistance in human KVB cells at 10 uM measured after 72 hrs by MTT assay; assay type: functional, KBV
[3] = Cytotoxicity against human KBV cells assessed as cell survival at 10 uM measured after 72 hrs incubation by MTT assay relative to control; assay type: functional; conditions: read-out: Activity
[4] = Reversal of multi-drug resistance in human KVB cells assessed as increase in PTX-induced cytotoxicity by measuring cell survival at 10 uM measured after 72 hrs incubation in presence of 100 nM paclitaxel by MTT assay relative to control; assay type: functional, KBV

For `CC(C)(C)OC(=O)N1CC[C@@H](C(=O)N[C@H]2CC[C@]3(C)[C@H]4C[C@@H](O)[C@@H]5[C@@H]([C@]6(C)CC[C@H](C(C)(C)O)O6)CC[C@@]5(C)[C@]4(C)CC[C@H]3C2(C)C)C1`, which Activity [1] is on record?
The Activity was 54%.

What about the Ratio [2] of the same compound?
Its Ratio is 76.

What about the viability at 10 µM [3] of the same compound?
Its viability at 10 µM is 81%.

What about the Activity [4] of the same compound?
Its Activity is 31%.

Which Activity [1] does the source give for `CC(C)(O)[C@H]1CC[C@@](C)([C@H]2CC[C@]3(C)[C@@H]2[C@H](O)C[C@@H]2[C@@]4(C)CC[C@H](NC(=O)[C@H]5CCCCN5)C(C)(C)[C@@H]4CC[C@]23C)O1` here?
The Activity was 56%.

What about the Ratio ([2]; 72 h, 10 µM) of the same compound?
The Ratio was 89.1 and 106.3.

And the viability at 10 µM [3]?
The viability at 10 µM was 99%.

What about the Activity [4] of the same compound?
The Activity was 28%.

Which Activity [1] does the source give for `CC(C)(O)[C@H]1CC[C@@](C)([C@H]2CC[C@]3(C)[C@@H]2[C@H](O)C[C@@H]2[C@@]4(C)CC[C@H](NC(=O)[C@@H]5CC(F)(F)CN5)C(C)(C)[C@@H]4CC[C@]23C)O1` here?
Its Activity is 78%.

And the viability at 10 µM [3]?
Its viability at 10 µM is 95%.

What about the Activity [4] of the same compound?
The Activity was 62%.

Which results are given for `CC(=O)N1CCC[C@H]1C(=O)N[C@H]1CC[C@]2(C)[C@H]3C[C@@H](O)[C@@H]4[C@@H]([C@]5(C)CC[C@H](C(C)(C)O)O5)CC[C@@]4(C)[C@]3(C)CC[C@H]2C1(C)C`?
Activity [1]: 80%; viability at 10 µM [3]: 97%; Activity [4]: 63%

Which Activity [1] does the source give for `CC(C)(O)[C@H]1CC[C@@](C)([C@H]2CC[C@]3(C)[C@@H]2[C@H](O)C[C@@H]2[C@@]4(C)CC[C@H](NC(=O)[C@@H]5C[C@@H](F)CN5)C(C)(C)[C@@H]4CC[C@]23C)O1` here?
Its Activity is 78%.

And the viability at 10 µM [3]?
The viability at 10 µM was 99%.

What about the Activity [4] of the same compound?
Its Activity is 66%.

Which Activity [1] does the source give for `CC(C)(O)[C@H]1CC[C@@](C)([C@H]2CC[C@]3(C)[C@@H]2[C@H](O)C[C@@H]2[C@@]4(C)CC[C@H](NC(=O)C5CNC5)C(C)(C)[C@@H]4CC[C@]23C)O1` here?
The Activity was 76%.

What about the viability at 10 µM [3] of the same compound?
The viability at 10 µM was 97%.

And the Activity [4]?
The Activity was 61%.

Which results are given for `C[S+](C)[O-]` [DIMETHYL SULFOXIDE]?
Activity [1]: 100%; viability at 10 µM [3]: 100%; Activity [4]: 100%

Which Activity [1] does the source give for `CC(C)(O)[C@H]1CC[C@@](C)([C@H]2CC[C@]3(C)[C@@H]2[C@H](O)C[C@@H]2[C@@]4(C)CC[C@H](NC(=O)[C@H]5CCC(=O)N5)C(C)(C)[C@@H]4CC[C@]23C)O1` here?
Its Activity is 93%.

And the viability at 10 µM [3]?
The viability at 10 µM was 92%.

What about the Activity [4] of the same compound?
The Activity was 87%.

Which Activity [1] does the source give for `CC(C)(C)OC(=O)N1C[C@H](O)C[C@H]1C(=O)N[C@H]1CC[C@]2(C)[C@H]3C[C@@H](O)[C@@H]4[C@@H]([C@]5(C)CC[C@H](C(C)(C)O)O5)CC[C@@]4(C)[C@]3(C)CC[C@H]2C1(C)C` here?
Its Activity is 90%.

And the viability at 10 µM [3]?
Its viability at 10 µM is 105%.

And the Activity [4]?
Its Activity is 93%.

Which Activity [1] does the source give for `CC(C)(O)[C@H]1CC[C@@](C)([C@H]2CC[C@]3(C)[C@@H]2[C@H](O)C[C@@H]2[C@@]4(C)CC[C@H](NC(=O)[C@@H]5CCC(=O)O5)C(C)(C)[C@@H]4CC[C@]23C)O1` here?
Its Activity is 95%.

What about the viability at 10 µM [3] of the same compound?
Its viability at 10 µM is 104%.

What about the Activity [4] of the same compound?
Its Activity is 94%.

For `CC(C)(O)[C@H]1CC[C@@](C)([C@H]2CC[C@]3(C)[C@@H]2[C@H](O)C[C@@H]2[C@@]4(C)CC[C@H](NC(=O)[C@H]5CCCN5)C(C)(C)[C@@H]4CC[C@]23C)O1`, which Activity [1] is on record?
Its Activity is 73%.

What about the viability at 10 µM [3] of the same compound?
Its viability at 10 µM is 109%.

What about the Activity [4] of the same compound?
The Activity was 63%.

Which Activity [1] does the source give for `CC(C)(C)OC(=O)N1CC(C(=O)N[C@H]2CC[C@]3(C)[C@H]4C[C@@H](O)[C@@H]5[C@@H]([C@]6(C)CC[C@H](C(C)(C)O)O6)CC[C@@]5(C)[C@]4(C)CC[C@H]3C2(C)C)C1` here?
Its Activity is 80%.

And the viability at 10 µM [3]?
The viability at 10 µM was 91%.

And the Activity [4]?
Its Activity is 54%.

Which Activity [1] does the source give for `CC(C)(O)[C@H]1CC[C@@](C)([C@H]2CC[C@]3(C)[C@@H]2[C@H](O)C[C@@H]2[C@@]4(C)CC[C@H](NC(=O)[C@H]5C[C@@H](O)CN5)C(C)(C)[C@@H]4CC[C@]23C)O1` here?
The Activity was 95%.

And the viability at 10 µM [3]?
Its viability at 10 µM is 98%.

And the Activity [4]?
Its Activity is 98%.

Which results are given for `CC(C)(O)[C@H]1CC[C@@](C)([C@H]2CC[C@]3(C)[C@@H]2[C@H](O)C[C@@H]2[C@@]4(C)CC[C@H](NC(=O)[C@@H]5COCCN5)C(C)(C)[C@@H]4CC[C@]23C)O1`?
Activity [1]: 82%; viability at 10 µM [3]: 89%; Activity [4]: 57%

Which Activity [1] does the source give for `CC(C)(C)OC(=O)N1CCCC[C@@H]1C(=O)N[C@H]1CC[C@]2(C)[C@H]3C[C@@H](O)[C@@H]4[C@@H]([C@]5(C)CC[C@H](C(C)(C)O)O5)CC[C@@]4(C)[C@]3(C)CC[C@H]2C1(C)C` here?
The Activity was 42%.

And the viability at 10 µM [3]?
Its viability at 10 µM is 118%.

And the Activity [4]?
Its Activity is 27%.

Which Activity [1] does the source give for `CC1(C(=O)N[C@H]2CC[C@]3(C)[C@H]4C[C@@H](O)[C@@H]5[C@@H]([C@]6(C)CC[C@H](C(C)(C)O)O6)CC[C@@]5(C)[C@]4(C)CC[C@H]3C2(C)C)COC1` here?
Its Activity is 59%.

What about the viability at 10 µM [3] of the same compound?
The viability at 10 µM was 84%.

And the Activity [4]?
The Activity was 50%.

Which Activity [1] does the source give for `CC(C)(O)[C@H]1CC[C@@](C)([C@H]2CC[C@]3(C)[C@@H]2[C@H](O)C[C@@H]2[C@@]4(C)CC[C@H](NC(=O)[C@H]5CCCNC5)C(C)(C)[C@@H]4CC[C@]23C)O1` here?
The Activity was 83%.

What about the viability at 10 µM [3] of the same compound?
Its viability at 10 µM is 94%.

What about the Activity [4] of the same compound?
Its Activity is 45%.

For `CC(C)(O)[C@H]1CC[C@@](C)([C@H]2CC[C@]3(C)[C@@H]2[C@H](O)C[C@@H]2[C@@]4(C)CC[C@H](NC(=O)[C@H]5CCN5)C(C)(C)[C@@H]4CC[C@]23C)O1`, which Activity [1] is on record?
Its Activity is 86%.

What about the viability at 10 µM [3] of the same compound?
The viability at 10 µM was 70%.

What about the Activity [4] of the same compound?
The Activity was 68%.

With `CC(C)(C)OC(=O)N1CC(F)(F)C[C@H]1C(=O)N[C@H]1CC[C@]2(C)[C@H]3C[C@@H](O)[C@@H]4[C@@H]([C@]5(C)CC[C@H](C(C)(C)O)O5)CC[C@@]4(C)[C@]3(C)CC[C@H]2C1(C)C` as the compound, how does the Activity [1] read?
The Activity was 65%.

And the viability at 10 µM [3]?
The viability at 10 µM was 100%.

What about the Activity [4] of the same compound?
Its Activity is 64%.

With `CC(C)(C)OC(=O)N1CCOC[C@H]1C(=O)N[C@H]1CC[C@]2(C)[C@H]3C[C@@H](O)[C@@H]4[C@@H]([C@]5(C)CC[C@H](C(C)(C)O)O5)CC[C@@]4(C)[C@]3(C)CC[C@H]2C1(C)C` as the compound, how does the Activity [1] read?
Its Activity is 81%.

What about the viability at 10 µM [3] of the same compound?
Its viability at 10 µM is 89%.

What about the Activity [4] of the same compound?
The Activity was 55%.

Which Activity [1] does the source give for `CC(C)(C)OC(=O)N1CCC[C@H](C(=O)N[C@H]2CC[C@]3(C)[C@H]4C[C@@H](O)[C@@H]5[C@@H]([C@]6(C)CC[C@H](C(C)(C)O)O6)CC[C@@]5(C)[C@]4(C)CC[C@H]3C2(C)C)C1` here?
Its Activity is 76%.

What about the viability at 10 µM [3] of the same compound?
The viability at 10 µM was 93%.

And the Activity [4]?
Its Activity is 47%.

With `CC(C)(O)[C@H]1CC[C@@](C)([C@H]2CC[C@]3(C)[C@@H]2[C@H](O)C[C@@H]2[C@@]4(C)CC[C@H](NC(=O)CC5CNC5)C(C)(C)[C@@H]4CC[C@]23C)O1` as the compound, how does the Activity [1] read?
Its Activity is 95%.

And the viability at 10 µM [3]?
Its viability at 10 µM is 96%.

What about the Activity [4] of the same compound?
Its Activity is 90%.

For `CC(C)(O)[C@H]1CC[C@@](C)([C@H]2CC[C@]3(C)[C@@H]2[C@H](O)C[C@@H]2[C@@]4(C)CC[C@H](NC(=O)[C@@H]5CCC(=O)N5)C(C)(C)[C@@H]4CC[C@]23C)O1`, which Activity [1] is on record?
Its Activity is 93%.

What about the viability at 10 µM [3] of the same compound?
Its viability at 10 µM is 100%.

What about the Activity [4] of the same compound?
The Activity was 87%.

Which Activity [1] does the source give for `CC(C)(O)[C@H]1CC[C@@](C)([C@H]2CC[C@]3(C)[C@@H]2[C@H](O)C[C@@H]2[C@@]4(C)CC[C@H](NC(=O)[C@@H]5CCNC5)C(C)(C)[C@@H]4CC[C@]23C)O1` here?
The Activity was 67%.

What about the viability at 10 µM [3] of the same compound?
The viability at 10 µM was 99%.

What about the Activity [4] of the same compound?
The Activity was 49%.
